Our source for the IC50 values is patent EP2951180B1, “2,6,7,8 SUBSTITUTED PURINES AS HDM2 INHIBITORS” (Merck Sharp & Dohme Corp., priority 2013, dated 2014).

The target of this assay is T1, HDM2 (Homo sapiens, UniProt Q00987).
T1 construct: Thioredoxin (N); made in house; host or cells: E. coli strain BL21(DE3)Rosetta
The experiment in a line: FRET assay (HDM2 inhibition; method not described in this part). Type of assay: binding.

T1 sequence (Q00987 17-125): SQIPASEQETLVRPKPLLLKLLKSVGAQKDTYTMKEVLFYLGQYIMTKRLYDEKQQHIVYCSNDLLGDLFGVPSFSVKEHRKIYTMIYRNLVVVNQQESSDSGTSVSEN

In turn, `CC(C)c1ccnc(-c2nc3nc(C(=O)O)nc(N[C@H](C)C4CCC4)c3n2Cc2ccc(C(F)(F)F)c(F)c2)c1` [Example 1.49, 6-{[(1R)-1-cyclobutylethyl]amino}-7-[3-fluoro-4-(trifluoromethyl)benzyl] - 8-[4-(1-methylethyl)pyridin-2-yl]-7H-purine-2-carboxylic acid] registered an IC50 (Table 1) of 3.52 nM.
Regarding `C[C@@H](Nc1nc(C(=O)O)nc2nc(-c3nccs3)n(Cc3ccc(C(F)(F)F)cc3)c12)C1CCC1` [Example 3.9, 6-{[(1R)-1-cyclobutylethyl]amino}-8-(1,3-thiazol-2-yl)-7-[4-(trifluoromethyl)benzyl] -7H-purine-2-carboxylic acid], the IC50 (Table 3) stood at 7.86 nM.
In turn, `COc1cc(C)cc(-c2nc3nc(C(=O)O)nc(N[C@H](C)C4CCC4)c3n2Cc2ccc(C(F)(F)F)cc2)c1` [Example 1.123, 6-{[(1R)-1-cyclobutylethyl]amino}-8-(3-methoxy-5-methylphenyl)-7-[4-(trifluoromethyl)benzyl]-7H-purine-2-carboxylic acid] displayed an IC50 (Table 1) of 53.6 nM.
In turn, `Cc1ccc(-c2nc3nc(C(=O)O)nc(N[C@H](C)C4CC4)c3n2Cc2ccc(C(F)(F)F)cc2)cn1` [Example 2.36, 6-{[(1R)-1-cyclopropylethyl]amino}-8-(6-methylpyridin-3-yl)-7-[4-(trifluoromethyl)benzyl]-7H-purine-2-carboxylic acid] had an IC50 (Table 2) of 1300 nM.
As for `Cc1ccc(C)c(-c2nc3nc(C(=O)O)nc(N[C@H](C)C4CCC4)c3n2Cc2ccc(Cl)cc2)c1` [Example 4.2, (R)-7-(4-chlorobenzyl)-6-((1-cyclobutylethyl)amino)-8-(2,5-dimethylphenyl)-7H-purine-2-carboxylic acid], the IC50 (Table 4) was 40.4 nM.
Where the note is “Table 1”, `C[C@@H](Nc1nc(C(=O)O)nc2nc(-c3ccc4occc4c3)n(Cc3ccc(C(F)(F)F)cc3)c12)C1CCC1` [Example 1.117, 8-(1-benzofuran-5-yl)-6-{[(1R)-1-cyclobutylethyl]amino}-7-[4-(trifluoromethyl)benzyl]-7H-purine-2-carboxylic acid] yielded an IC50 of 16.7 nM.
Same read-out and setting: as for `C[C@@H](Nc1nc(C(=O)O)nc2nc(-c3cc(N(C)C)ccc3O)n(Cc3ccc(C(F)(F)F)cc3)c12)C1CCC1` [Example 1.42, 6-{[(1R)-1-cyclobutylethyl]amino}-8-[5-(dimethylamino)-2-hydroxyphenyl]-7-[4-(trifluoromethyl)benzyl]-7H-purine-2-carboxylic acid], the figure is 77 nM.
Where the note is “Table 2”, `Cc1noc(C)c1-c1nc2nc(C(=O)O)nc(N[C@H](C)C3CCC3)c2n1Cc1ccc(C(F)(F)F)cc1` [Example 2.84, 6-{[(1R)-1-cyclobutylethyl]amino} -8-(3,5-dimethylisoxazol-4-yl)-7-[4-(trifluoromethyl)benzyl] - 7H-purine-2-carboxylic acid] gave an IC50 of 79.4 nM.
The same measure, in the same setting: the value for `CCOc1cccc(-c2nc3nc(C(=O)O)nc(N[C@H](C)C4CC4)c3n2Cc2ccc(C(F)(F)F)cc2)c1` [Example 2.15, 6-{[(1R)-1-cyclopropylethyl]amino}-8-(3-ethoxyphenyl)-7-[4-(trifluoromethyl)benzyl]-7H-purine-2-carboxylic acid] was 304 nM.
`C[C@@H](Nc1nc(C(=O)O)nc2nc(-c3ccc(C(=O)C4CC4)cc3)n(Cc3ccc(C(F)(F)F)cc3)c12)C1CCC1` [Example 1.116, 6-{[(1R)-1-cyclobutylethyl]amino}-8-[4-(cyclopropylcarbonyl)phenyl]-7-[4-(trifluoromethyl)benzyl] - 7H-purine-2-carboxylic acid]: for the setting “Table 1”, the IC50 stood at 66.3 nM.
For the compound `C[C@@H](Nc1nc(C(=O)O)nc2nc(-c3ccc(F)cc3F)n(Cc3ccc(C(F)(F)F)cc3)c12)C1CCC1` [Example 2.68, 6-{[(1R)-1-cyclobutylethyl]amino}-8-(2,4-difluorophenyl)-7-[4-(trifluoromethyl)benzyl]-7H-purine-2-carboxylic acid], for the setting “Table 2”, the midpoint of inhibition, the IC50, lay at 22.4 nM.
Still for that read-out and setting: the value for `C[C@@H](Nc1nc(C(=O)O)nc2nc(-c3cccc(Cl)c3)n(Cc3ccc(C(F)(F)F)cc3)c12)C1CCC1` [Example 2.40, 8-(3-chlorophenyl)-6-{[(1R)-1-cyclobutylethyl]amino}-7-[4-(trifluoromethyl)benzyl]-7H-purine-2-carboxylic acid] was 30 nM; that for `Cc1cccc(-c2nc3nc(C(=O)O)nc(N[C@H](C)C4CC4)c3n2Cc2ccc(C(F)(F)F)cc2)c1F` [Example 2.65, 6-{[(1R)-1-cyclopropylethyl]amino}-8-(2-fluoro-3-methylphenyl)-7-[4-(trifluoromethyl)benzyl]-7H-purine-2-carboxylic acid] was 182 nM.
For the compound `Cc1cccc(-c2nc3nc(C(=O)O)nc(N[C@H](C)C4CC4)c3n2Cc2ccc(C(C)C)cc2)c1` [Example 5.7, 6-{[(1R)-1-cyclopropylethyl]amino}-7-[4-(1-methylethyl)benzyl]-8-(3-methylphenyl)-7H-purine-2-carboxylic acid], the IC50 (Table 5) amounted to 3550 nM.
Where the note is “Table 1”, `Cc1ccc(Cl)cc1-c1nc2nc(C(=O)O)nc(N[C@H](C)C3CCC3)c2n1Cc1ccc(C(F)(F)F)cc1` [Example 1.132, 8-(5-chloro-2-methylphenyl)-6-{[(1R)-1-cyclobutylethyl]amino}-7-[4-(trifluoromethyl)benzyl]-7H-purine-2-carboxylic acid] returned an IC50 of 524 nM.
Compound `C[C@@H](Nc1nc(C(=O)O)nc2nc(-c3ccccc3C(F)(F)F)n(Cc3ccc(C(F)(F)F)cc3)c12)C1CCC1` [Example 2.79, 6-{[(1R)-1-cyclobutylethyl]amino}-7-[4-(trifluoromethyl)benzyl]-8-[2-(trifluoromethyl)phenyl]-7H-purine-2-carboxylic acid] came in with an IC50 (Table 2) of 13.4 nM.
`C[C@@H](Nc1nc(C(=O)O)nc2nc(-c3cccc(Nc4ccccc4)c3)n(Cc3ccc(C(F)(F)F)cc3)c12)C1CCC1` [Example 1.130, 6-{[(1R)-1-cyclobutylethyl]amino}-8-[3-(phenylamino)phenyl]-7-[4-(trifluoromethyl)benzyl]-7H-purine-2-carboxylic acid]: 76.3 nM corresponded to half-maximal inhibition (Table 1) (IC50).
On the same count and under the same terms, as for `C[C@@H](Nc1nc(C(=O)O)nc2nc(-c3cc(C(O)c4ccccc4)ccn3)n(Cc3ccc(C(F)(F)F)cc3)c12)C1CCC1` (stereo partly drawn) [Example 1.8, 6-(((R)-1-cyclobutylethyl)amino)-8-(4-(hydroxy(phenyl)methyl)pyridin-2-yl)-7-(4-(trifluoromethyl)benzyl)-7H-purine-2-carboxylic acid], the figure is 20.1 nM.
In turn, `Cc1cccc(-c2nc3nc(C(=O)O)nc(N[C@H](C)C4CC4)c3n2Cc2ccc(C(F)(F)F)c(Cl)c2)c1` [Example 5.15, 7-[3-chloro-4-(trifluoromethyl)benzyl]-6-{[(1R)-1-cyclopropylethyl]amino}-8-(3-methylphenyl)-7H-purine-2-carboxylic acid] had an IC50 (Table 5) of 609 nM.
Consider `CC(C)c1cnc(-c2nc3nc(C(=O)O)nc(N[C@H](C)C4CCC4)c3n2Cc2ccc(C(F)(F)F)cc2)s1` [Example 3.3, (R)-6-((1-cyclobutylethyl)amino)-8-(5-isopropylthiazol-2-yl)-7-(4-(trifluoromethyl)benzyl)-7H-purine-2-carboxylic acid], for which, under “Table 3”, the IC50 amounted to 57.9 nM.
For the setting “Table 1”, `CC(C)c1ccnc(-c2nc3nc(C(=O)O)nc(N[C@H](C)C4CCC4)c3n2Cc2ccc(C(F)(F)F)s2)c1` [Example 1.7, 6-{[(1R)-1-cyclobutylethyl]amino}-8-[4-(propan-2-yl)pyridin-2-yl]-7-{[5-(trifluoromethyl)thiophen-2-yl]methyl}-7H-purine-2-carboxylic acid] returned an IC50 of 26.9 nM.
As to `Cc1cccc(C)c1-c1nc2nc(C(=O)O)nc(N[C@H](C)C3CC3)c2n1Cc1ccc(C(F)(F)F)cc1` [Example 2.62, 6-{[(1R)-1-cyclopropylethyl]amino}-8-(2,6-dimethylphenyl)-7-[4-(trifluoromethyl)benzyl]-7H-purine-2-carboxylic acid], where the note is “Table 2”, the IC50 was 65.6 nM.
`Cc1cc(-c2nc3nc(C(=O)O)nc(N[C@H](C)C4CCC4)c3n2Cc2ccc(C(F)(F)F)cc2)ccc1F` [Example 1.137, 6-{[(1R)-1-cyclobutylethyl]amino}-8-(4-fluoro-3-methylphenyl)-7-[4-(trifluoromethyl)benzyl]-7H-purine-2-carboxylic acid]: the IC50 (Table 1) was 49.7 nM.
Still for that read-out and setting: as for `CCOc1ccc(C(F)(F)F)cc1-c1nc2nc(C(=O)O)nc(N[C@H](C)C3CCC3)c2n1Cc1ccc(C(F)(F)F)cc1` [Example 1.33, 6-{[(1R)-1-cyclobutylethyl]amino}-8-[2-ethoxy-5-(trifluoromethyl)phenyl]-7-[4-(trifluoromethyl)benzyl] - 7H-purine-2-carboxylic acid], the figure is 19.8 nM.
With `CCOc1cc(C(F)(F)F)ccc1Cn1c(-c2cccc(C)c2)nc2nc(C(=O)O)nc(N[C@H](C)C3CCC3)c21` [Example 5.18, 6-{[(1R)-1-cyclobutylethyl]amino}-7-[2-ethoxy-4-(trifluoromethyl)benzyl]-8-(3-methylphenyl)-7H-purine-2-carboxylic acid], for the setting “Table 5”, the IC50 was determined as 207 nM.
`CC(C)c1cccc(-c2nc3nc(C(=O)O)nc(N[C@H](C)C4CCC4)c3n2Cc2ccc(C(F)(F)F)cc2)n1` [Example 1.70, 6-{[(1R)-1-cyclobutylethyl]amino}-8-[6-(1-methylethyl)pyridin-2-yl]-7-[4-(trifluoromethyl)benzyl]-7H-purine-2-carboxylic acid] came in with an IC50 (Table 1) of 46.9 nM.
The same measure, in the same setting: the value for `Cc1cnc(-c2nc3nc(C(=O)O)nc(N[C@H](C)C4CCC4)c3n2Cc2ccc(C(F)(F)F)cc2)cc1C(C)C` [Example 1.86, 6-{[(1R)-1-cyclobutylethyl]amino}-8-[5-methyl-4-(1-methylethyl)pyridin-2-yl]-7-[4-(trifluoromethyl)benzyl]-7H-purine-2-carboxylic acid] was 24.8 nM.
Compound `Cc1cccc(-c2nc3nc(C(=O)O)nc(NCC4CC4)c3n2C(C)c2ccc(Cl)cc2)c1` (centres unmarked) [Example 5.2, 7-(1-(4-chlorophenyl)ethyl)-6-((cyclopropylmethyl)amino)-8-(m-tolyl)-7H-purine-2-carboxylic acid] came in with an IC50 (Table 5) of 984 nM.
For `Cc1ccc(F)cc1-c1nc2nc(C(=O)O)nc(N[C@H](C)C3CCC3)c2n1Cc1ccc(C(F)(F)F)cc1` [Example 1.103, 6-{[(1R)-1-cyclobutylethyl]amino}-8-(5-fluoro-2-methylphenyl)-7-[4-(trifluoromethyl)benzyl]-7H-purine-2-carboxylic acid], under “Table 1”, the IC50 stood at 10.8 nM.
